Experimental data reported in patent US20070249673A1, “Method for administering tolperisone” (priority 2006, published 2007).
Read-outs that look alike come from different tables or passages of the source.

Columns and labels:
[1] = Food effect of tolperisone: open-label, single dose, 4-way crossover pharmacokinetic study in healthy male volunteers; conditions: for AUC0-oo / AUC0-tlast / Cmax / Tmax / t1/2 / λz: 150 mg single oral dose, plasma, mean ± SD
Description: (§1) The study was designed as an open-label, single dose, 4-way crossover study in 24 healthy male subjects. Randomization was performed according to the Latin Square Block design. Six subjects each were distributed to the four treatment arms. Each subject completed the study having received a single dose of 150 mg, 300 mg, and 450 mg of tolperisone once daily in a fasted state, and 150 mg of tolperisone with food. The wash-out period between study periods was at least seven days.
(§2) 24 healthy male subjects were planned to participate in the study. […] The study group was composed of healthy male Caucasians, aged between 18-50 years, with a body mass index of 19-28 kg/m^2.
(§3) Tolperisone, 2-methyl-1-(4-methylphenyl)-3-(1-piperidinyl)-1-propanone, was supplied in coated tablets of 150 mg (“SPH-3047”, Sanochemia Pharmazeutica AG).
(§4) The dosage regimen was a four-way crossover. Within four treatment sequences, each subject received each of the following doses once.
(§5) Procedures from Day 1 until Day 3 were as follows (time points are detailed in the tabular schedule of trial procedures): • (i) An indwelling intravenous catheter was placed for blood sampling (without using heparin). • (ii) The study drug was administered (either 150, 300, or 450 mg of tolperisone) with 200 ml non-carbonated water in a standing position in a fasting state (intake of a standard breakfast not earlier than 90 minutes after dosing). For the food effect investigation, subjects received 150 mg tolperisone after food intake. • (iii) 12-lead ECG was taken both pre-dose, and at about 2 h post-dose (+15 min); ECG recordings were performed approximately 15 minutes before blood sampling. […] 64 blood samples for the determination of tolperisone and its main metabolite were drawn at the following times: pre-dose and 0.25, 0.5, 0.75, 1.0, 1.25, 1.5, 2, 3, 4, 8, 12, 24, 36, 48, and 72 hours post-administration (16 samples at each treatment).
(§6) On Day 1, meals were identical for all four study periods, with the exception of the “fed” study period during which a standardized breakfast was served 30 min prior to dosing.
(§7) In the non-fasted study period subjects received a standardized breakfast 30 min prior to dosing. The breakfast was a high fat breakfast according to FDA recommendations and was composed of the following food items: 2 slices of toasted white bread with butter, 2 eggs fried in butter, 2 slices of bacon, 2 ounces (1 oz=28.35 g) of “hash-browns” (fried, shredded potatoes), and 8 ounces of whole milk.
(§8) Assessment of Pharmacokinetics: For pharmacokinetic analysis, 7 ml of blood were collected by using Sarstedt monovettes (Sarstedt Ltd., Leicester, UK) or Vacutainers (Becton Dickenson).
(§9) The samples were immediately stored in ice water and centrifuged within 30 min following the collection of blood (1500×g, 10 minutes) at +4° C. temperature. The plasma from each sample was divided into two equal aliquots (approx. 2×1.5 ml), which were each transferred to a polypropylene tube, and identified by a coded label. The plasma samples were then stored in a freezer at a temperature of at least −70° C. until time of analysis.

[2] = Pharmacokinetic profile of tolperisone after single and multi-dosing (150 mg regimen over 7 days) in healthy subjects under fasted and fed conditions; conditions: for AUC(0-t) / AUC(inf) / Cmax / t½ / λz / AUC(0-6): mean ± SD; for Tmax: median
Description: (§10) Dosing Regimen: Subjects in each cohort received tolperisone according to the following regimen.
(§11) Blood samples for the measurement of the plasma concentrations of tolperisone and metabolites M1 (4-hydroxymethyltolperisone) and M4 (4-carboxy-tolperisone) were collected at the times shown in Table 8.
(§12) Bioanalytical: Plasma concentrations of tolperisone and metabolites M1 and M4 were measured using a validated LC/MS/MS assay by Pharm-analyt Laboratory, Baden Austria. The limits of quantitation (LOQ) for tolperisone, Mi, and M4 in plasma were 0.2 ng/ML, and 0.01 μg/mL, respectively.
(§13) Pharmacokinetic Analyses: Pharmacokinetic parameters for tolperisone, M1, and M4 were calculated using non-compartmental analysis. Only plasma concentrations greater than or equal to the LOQ for the respective assay were used in the pharmacokinetic analyses. Actual blood sampling times were used in all pharmacokinetic analyses. […] All pharmacokinetic calculations were done using SAS® for Windows® Version 9.1.3.
(§14) The maximum plasma concentration (Cmax) and time to Cmax (Tmax) were taken directly from the data. The elimination rate constant, λz, was calculated as the negative of the slope of the terminal log-linear segment of the plasma concentration-time curve. The range of data to be used for each subject and treatment was determined by visual inspection of a semi-logarithmic plot of concentration versus time. Elimination half-life (t½) was calculated according to the following equation: [formula] Area under the curve to the final sample with a concentration greater than or equal to the LOQ [(AUC(0-t)] was calculated using the linear trapezoidal method and extrapolated to infinity [AUC(inf)] using: [formula] where Ctf is the final concentration≧LOQ.
(§15) The maximum plasma concentration (Cmax) and time to Cmax (Tmax) were taken directly from the data.
(§16) The maximum plasma concentration (Cmax) and time to Cmax (Tmax) were taken directly from the data. The elimination rate constant, λz, and half-life, t½, were calculated as described for the 0800 dose on Day 1 (above). Areas under the curve to the final sample with a concentration greater than or equal to the LOQ [(AUC(O-t)] and over the 6-hour dosing interval [AUC(0-6)] were calculated using the linear trapezoidal method.

[3] = human, in vivo
Description: as §1, §2, §3, §4, §5, §6, §7, §8, §9

[4] = human, in vivo; remark: listed apart in the source
Description: as §10, §11, §12, §13, §14, §15, §16

[5] = clinical; conditions: human, in vivo
Description: as §10, §11, §12, §13, §14, §15, §16

[6] = Day 1 - 0800 Dose, Fasted, Females
[7] = Day 1 - 0800 Dose, Fasted, Males
[8] = Day 1 - 0800 Dose, Fasted, both sexes
[9] = Day 1 - 0800 Dose, Fed, Females
[10] = Day 1 - 0800 Dose, Fed, both sexes
[11] = Day 1, fed vs fasted, both sexes
[12] = Day 2 - 2200 Dose, Fasted, Females
[13] = Day 2 - 2200 Dose, Fasted, Males
[14] = Day 2 - 2200 Dose, Fasted, both sexes
[15] = Day 2 - 2200 Dose, Fed, Females
[16] = Day 2 - 2200 Dose, Fed, both sexes
[17] = Day 7 - 0800 Dose, Fasted, Females
[18] = Day 7 - 0800 Dose, Fasted, Males
[19] = Day 7 - 0800 Dose, Fasted, both sexes
[20] = Day 7 - 0800 Dose, Fed, Females
[21] = Day 7 - 0800 Dose, Fed, both sexes
[22] = Day 7 - 2200 Dose, Fasted, Females
[23] = Day 7 - 2200 Dose, Fasted, Males
[24] = Day 7 - 2200 Dose, Fasted, both sexes
[25] = Day 7 - 2200 Dose, Fed, Females
[26] = Day 7 - 2200 Dose, Fed, both sexes

Structure (SMILES): CC(CN1CCCCC1)C(=O)c1ccc(CO)cc1 (stereo not shown) [4-HM-Tolperisone, 4-hydroxymethyl-tolperisone]
- AUC0-oo ([1]; fasted state): 1.82 ± 1.09 ng·h/mL
- AUC0-tlast ([1]; fasted state): 1.20 ± 1.01 ng·h/mL
- Cmax ([1]; fasted state): 1.70 ± 1.66 ng/mL
- Tmax ([1]; fasted state): 0.68 h
- t1/2 ([1]; fasted state): 0.55 ± 0.21 h
- λz ([1]; fasted state): 1.45 ± 0.51 h⁻¹
- AUC0-oo ([1]; fed state (high fat breakfast)): 3.92 ± 2.37 ng·h/mL
- AUC0-tlast ([1]; fed state (high fat breakfast)): 2.69 ± 2.18 ng·h/mL
- Cmax ([1]; fed state (high fat breakfast)): 2.56 ± 3.04 ng/mL
- Tmax ([1]; fed state (high fat breakfast)): 1.40 ± 0.77 h
- t1/2 ([1]; fed state (high fat breakfast)): 1.19 ± 0.80 h
- λz ([1]; fed state (high fat breakfast)): 0.95 ± 0.90 h⁻¹
- Tmax ([1]; fed state (high fat breakfast), listed as 4-HM-tolperisone): 1.38 h
- AUC0-oo, geometric mean for the ratio 150 mg fed/150 mg fasted, point estimate ([1]; Fed/fasted, 150 mg): 1.95
- AUC0-tlast, geometric mean for the ratio 150 mg fed/150 mg fasted, point estimate ([1]; Fed/fasted, 150 mg): 2.27
- Cmax, geometric mean for the ratio 150 mg fed/150 mg fasted, point estimate ([1]; Fed/fasted, 150 mg): 1.23
- concentration in blood plasma eight hours after study drug administration ([1]; all studied doses (150, 300, and 450 mg)): below the limit of quantification
- AUC(0-t) [2, 6]: 3.98 ± 2.48 (3) h · ng/mL
- AUC(inf) [2, 6]: 4.10 ± 2.55 (3) h · ng/mL
- Cmax [2, 6]: 2.06 ± 1.44 (3) ng/mL
- t½ [2, 6]: 1.03 ± 0.090 (3) h
- λz [2, 6]: 0.6787 ± 0.0627 (3) h^−1
- Tmax [2, 6]: 1.00 (3) h
- AUC(0-t) [2, 7]: 3.49 ± 1.47 (7) h · ng/mL
- AUC(inf) [2, 7]: 3.60 ± 1.48 (7) h · ng/mL
- Cmax [2, 7]: 2.30 ± 1.50 (7) ng/mL
- t½ [2, 7]: 1.16 ± 0.18 (7) h
- λz [2, 7]: 0.6081 ± 0.0792 (7) h^−1
- Tmax [2, 7]: 0.75 (7) h
- AUC(0-t) [2, 8]: 3.63 ± 1.69 (10) h · ng/mL
- AUC(inf) [2, 8]: 3.75 ± 1.72 (10) h · ng/mL
- Cmax [2, 8]: 2.22 ± 1.40 (10) ng/mL
- t½ [2, 8]: 1.12 ± 0.17 (10) h
- λz [2, 8]: 0.6293 ± 0.0788 (10) h^−1
- Tmax [2, 8]: 0.88 (10) h
- AUC(0-t) [2, 9]: 8.23 ± 5.46 (4) h · ng/mL
- AUC(inf) [2, 9]: 8.64 ± 5.79 (4) h · ng/mL
- Cmax [2, 9]: 3.29 ± 2.36 (4) ng/mL
- t½ [2, 9]: 1.04 ± 0.12 (4) h
- λz [2, 9]: 0.6700 ± 0.0749 (4) h^−1
- Tmax [2, 9]: 2.00 (4) h
- AUC(0-t) ([2]; Day 1 - 0800 Dose, Fed, Males): 4.22 ± 1.08 (6) h · ng/mL
- AUC(inf) ([2]; Day 1 - 0800 Dose, Fed, Males): 4.31 ± 1.12 (6) h · ng/mL
- Cmax ([2]; Day 1 - 0800 Dose, Fed, Males): 3.07 ± 0.68 (6) ng/mL
- t½ ([2]; Day 1 - 0800 Dose, Fed, Males): 1.03 ± 0.09 (6) h
- λz ([2]; Day 1 - 0800 Dose, Fed, Males): 0.6791 ± 0.0554 (6) h^−1
- Tmax ([2]; Day 1 - 0800 Dose, Fed, Males): 0.88 (6) h
- AUC(0-t) [2, 10]: 5.82 ± 3.86 (10) h · ng/mL
- AUC(inf) [2, 10]: 6.05 ± 4.11 (10) h · ng/mL
- Cmax [2, 10]: 3.16 ± 1.46 (10) ng/mL
- t½ [2, 10]: 1.03 ± 0.10 (10) h
- λz [2, 10]: 0.6754 ± 0.0599 (10) h^−1
- Tmax [2, 10]: 1.00 (10) h
- increase in the mean value for AUC(inf) on administration with food [2, 11]: 61%
- increase in the mean value for Cmax on administration with food [2, 11]: 42%
- Cmax [2, 12]: 1.83 ± 0.70 (3) ng/mL
- Tmax [2, 12]: 0.75 (3) h
- Cmax [2, 13]: 1.08 ± 0.68 (7) ng/mL
- Tmax [2, 13]: 1.50 (7) h
- Cmax [2, 14]: 1.30 ± 0.74 (10) ng/mL
- Tmax [2, 14]: 1.25 (10) h
- Cmax [2, 15]: 2.23 ± 1.99 (4) ng/mL
- Tmax [2, 15]: 1.25 (4) h
- Cmax ([2]; Day 2 - 2200 Dose, Fed, Males): 1.24 ± 0.60 (6) ng/mL
- Tmax ([2]; Day 2 - 2200 Dose, Fed, Males): 1.00 (6) h
- Cmax [2, 16]: 1.64 ± 1.33 (10) ng/mL
- Tmax [2, 16]: 1.00 (10) h
- mean AUC(0-6) under fed conditions higher than fasted ([2]; Day 7, 0800 dose, both sexes): 12%
- mean Cmax under fed conditions lower than fasted ([2]; Day 7, 0800 dose, both sexes): 12%
- AUC(0-6) [2, 17]: 5.78 ± 2.18 (3) h · ng/mL
- Cmax [2, 17]: 3.79 ± 1.46 (3) ng/mL
- t½ [2, 17]: 1.04 ± 0.115 (3) h
- λz [2, 17]: 0.6728 ± 0.0705 (3) h^−1
- Tmax [2, 17]: 0.75 (3) h
- AUC(0-6) [2, 18]: 4.13 ± 2.37 (7) h · ng/mL
- Cmax [2, 18]: 2.42 ± 1.62 (7) ng/mL
- t½ [2, 18]: 1.23 ± 0.22 (7) h
- λz [2, 18]: 0.5766 ± 0.0978 (7) h^−1
- Tmax [2, 18]: 0.75 (7) h
- AUC(0-6) [2, 19]: 4.63 ± 2.33 (10) h · ng/mL
- Cmax [2, 19]: 2.83 ± 1.63 (10) ng/mL
- t½ [2, 19]: 1.18 ± 0.21 (10) h
- λz [2, 19]: 0.6054 ± 0.0982 (10) h^−1
- Tmax [2, 19]: 0.75 (10) h
- AUC(0-6) [2, 20]: 7.28 ± 4.43 (4) h · ng/mL
- Cmax [2, 20]: 3.67 ± 1.97 (4) ng/mL
- t½ [2, 20]: 1.08 ± 0.35 (2) h
- λz [2, 20]: 0.6783 ± 0.2222 (2) h^−1
- Tmax [2, 20]: 1.13 (4) h
- AUC(0-6) ([2]; Day 7 - 0800 Dose, Fed, Males): 3.82 ± 1.23 (6) h · ng/mL
- Cmax ([2]; Day 7 - 0800 Dose, Fed, Males): 1.70 ± 0.67 (6) ng/mL
- t½ ([2]; Day 7 - 0800 Dose, Fed, Males): 1.08 ± 0.32 (6) h
- λz ([2]; Day 7 - 0800 Dose, Fed, Males): 0.6791 ± 0.1380 (6) h^−1
- Tmax ([2]; Day 7 - 0800 Dose, Fed, Males): 1.00 (6) h
- AUC(0-6) [2, 21]: 5.20 ± 3.25 (10) h · ng/mL
- Cmax [2, 21]: 2.49 ± 1.61 (10) ng/mL
- t½ [2, 21]: 1.08 ± 0.31 (08) h
- λz [2, 21]: 0.6789 ± 0.1437 (08) h^−1
- Tmax [2, 21]: 1.00 (10) h
- Cmax [2, 22]: 3.43 ± 2.15 (3) ng/mL
- Tmax [2, 22]: 1.00 (3) h
- Cmax [2, 23]: 1.78 ± 1.23 (7) ng/mL
- Tmax [2, 23]: 1.03 (7) h
- Cmax [2, 24]: 2.27 ± 1.64 (10) ng/mL
- Tmax [2, 24]: 1.00 (10) h
- Cmax [2, 25]: 2.35 ± 1.97 (4) ng/mL
- Tmax [2, 25]: 1.25 (4) h
- Cmax ([2]; Day 7 - 2200 Dose, Fed, Males): 2.09 ± 1.33 (6) ng/mL
- Tmax ([2]; Day 7 - 2200 Dose, Fed, Males): 0.88 (6) h
- Cmax [2, 26]: 2.20 ± 1.51 (10) ng/mL
- Tmax [2, 26]: 1.00 (10) h
- accumulation (increase in Cmax over the seven days of dosing) ([2]; seven days of dosing, up to 150 mg three times daily): little or no accumulation
- mean elimination half-life ([2]; summary, not dependent on sex, food or duration of dosing): ~1.1 h

Structure (SMILES): Cc1ccc(C(=O)C(C)CN2CCCCC2)cc1 (stereo not shown) [Tolperisone, 2-methyl-1-(4-methylphenyl)-3-(1-piperidinyl)-1-propanone]
- AUC0-tlast ([3]; po, 150 mg): 54.0 ± 53.2 ng·h/mL
- AUC0-oo, geometric mean for the ratio 150 mg fed/150 mg fasted, point estimate ([3]; male): 1.87
- AUC0-tlast, geometric mean for the ratio 150 mg fed/150 mg fasted, point estimate ([3]; male): 1.92
- Cmax, geometric mean for the ratio 150 mg fed/150 mg fasted, point estimate ([3]; male): 1.18
- AUC0-oo ([3]; male, po, 150 mg): 55.4 ± 53.4 ng·h/mL
- Cmax ([3]; male, po, 150 mg): 36.1 ± 38.4 ng/mL
- Tmax ([3]; male, po, 150 mg): 0.66 h
- t1/2 ([3]; male, po, 150 mg): 2.06 ± 0.43 h
- mean AUC(0-6) under fasted conditions higher than fed ([4]; both): 127%
- mean Cmax under fasted conditions higher than fed ([4]; both): 213%
- t½ ([4]; both): 1.59 ± 0.63 (10) h
- t½ ([4]; female): 1.53 ± 0.08 (3) h
- t½ ([4]; male): 1.62 ± 0.77 (7) h
- AUC(0-t) ([5]; both, AUC (0-6)): 196 ± 129 ng·h/mL
- AUC(0-t) ([5]; both, AUC (0-t)): 117 ± 93 ng·h/mL
- AUC(0-inf) ([5]; both, AUC (inf)): 122 ± 97.5 ng·h/mL
- Tmax ([5]; both): 0.88 h
- half-life ([5]; both, mean elimination half-life): ~1.3 h
- half-life ([5]; both, t½): 1.22 ± 0.24 h
- AUC(0-t) ([5]; female, AUC(0-6)): 276 ± 151 ng·h/mL
- AUC(0-t) ([5]; female, AUC(0-t)): 173 ± 152 ng·h/mL
- AUC(0-inf) ([5]; female, AUC(inf)): 181 ± 161 ng·h/mL
- Tmax ([5]; female): 1 h
- half-life ([5]; female, t½): 1.17 ± 0.25 h
- AUC(0-t) ([5]; male, AUC(0-6)): 162 ± 113 ng·h/mL
- AUC(0-t) ([5]; male, AUC(0-t)): 93.1 ± 55.2 ng·h/mL
- AUC(0-inf) ([5]; male, AUC(inf)): 96.3 ± 55.7 ng·h/mL
- Tmax ([5]; male): 0.75 h
- half-life ([5]; male, t½): 1.24 ± 0.25 h
